# Measurements from patent US20050288347A1, “Certain triazole-based compounds, compositions, and uses thereof” (priority 2004, published 2005).
# “Also recorded” adds a separate entry of the source. Like-named read-outs stand apart in the source and are kept apart here.
# System: protein kinase
# Assay: HTS ATP-utilizing enzyme assay, off-chip mobility-shift format (Caliper HTS 250)
# Assay type: biochemical, human
# Conditions: for Kinase: kinase(s) for which the compound exhibits protein kinase inhibitory activity, active = greater than three-sigma from the mean activity of inactive compounds
# Procedure, shortened: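 Single-point screen at 10 μM compound in HEPES pH 7.5 buffer with Triton X-100 and BSA, 2.5 h at 20–22 °C. Substrate-to-phosphopeptide ratio measured by off-chip microfluidic mobility shift; EDTA wells as 100% and DMSO wells as 0% control, hits called at three-sigma limits.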
# [1] = test compound 10 μM, active = activity greater than three-sigma from the mean of the predominately inactive population for that enzyme
Compound,protein kinase against which the compound exhibits inhibitory activity (Table 3) [1],Kinase (test compound 10 μM),also measured
"Clc1ccc(-c2nnc(SCCN3CCOCC3)[nH]2)cc1Cl [4-(2-(5-(3,4-dichlorophenyl)-4H-1,2,4-triazol-3-ylthio)ethyl)morpholine]",AURORA-A; also recorded: GSK3-α; also recorded: GSK3-β,–,–
"Cc1cccc(-c2nnc(SCCN3CCOCC3)n2C)c1 [4-(2-(4-methyl-5-m-tolyl-4H-1,2,4-triazol-3-ylthio)ethyl)morpholine]",AKT1,–,–
"CCOC(=O)CCSc1nnc(-c2cccnc2)[nH]1 [ethyl 3-(5-(pyridin-3-yl)-4H-1,2,4-triazol-3-ylthio)propanoate]",AURORA-A; also recorded: DYRK2,–,–
COc1cc([N+](=O)[O-])ccc1NC(=O)CSc1nnc(-c2ccncc2)n1Cc1ccco1,–,FYN and PDGFRR-α and FLT-3,–
CCOc1ccc2nc(NC(=O)CSc3nnc(-c4ccncc4)n3Cc3ccco3)sc2c1,–,GSK3-α and AKT1,–
"N#Cc1ccccc1CSc1nnc(-c2cccs2)[nH]1 [2-((5-(thiophen-2-yl)-4H-1,2,4-triazol-3-ylthio)methyl)benzonitrile]",AURORA-A; also recorded: CHEK2; also recorded: GSK3-α,–,–
CCc1nnc(NC(=O)CSc2nnc(-c3ccc(NS(=O)(=O)c4ccc(C)cc4)cc3)n2C)s1,–,PDGFRR-α,–
COc1ccccc1-n1c(SCCCCc2ccccc2)nnc1-c1cc(C)n[nH]1,–,–,protein kinase against which the compound exhibits inhibitory activity (Table 3): MAPKAPK-3
"Cc1cccc(OCc2nnc(SC(C)C(=O)O)n2C)c1 (centres unmarked) [2-(4-methyl-5-(m-tolyloxymethyl)-4H-1,2,4-triazol-3-ylthio)propanoic acid]",–,AURORA-A,–
COc1ccc(-c2nnc(SCc3nnc(-c4ccccc4)o3)n2C)cc1OC,GSK3-α; also recorded: CHEK2,–,–
O=C(CSc1nnc(CNc2cccc(Cl)c2)n1CCc1ccccc1)NC1CCCCC1,–,CDK2-cyclinE,–
CC(C)(C)c1nnc(SCC(=O)c2ccc3c(c2)OCCO3)[nH]1,–,DYRK2; also recorded: GSK3-α,–
"COc1ccc(-n2c(C)nnc2S)cc1 [4-(4-methoxyphenyl)-5-methyl-4H-1,2,4-triazole-3-thiol]",–,AURORA-A,–
"CCn1c(SCCSc2nnc(C3CCCCC3)n2CC)nnc1C1CCCCC1 [1,2-bis(5-cyclohexyl-4-ethyl-4H-1,2,4-triazol-3-ylthio)ethane]",CHEK2,–,–
COCCCn1c(SCC(=O)NN(O)C(=O)c2ccccc2)nnc1-c1ccncc1,AURORA-A,–,–
CCc1nnc(SCc2ccccc2)n1Cc1ccc(Cl)c(Cl)c1,GSK3-α; also recorded: GSK3-β; also recorded: AURORA-A,–,–
CC1=CC(C)=NCN1SCc1nnc(SCc2ccc([N+](=O)[O-])cc2)n1Cc1ccco1,LYNA,–,–
"Cn1c(SCC(=O)OC2CCCCC2)nnc1-c1ccc([N+](=O)[O-])cc1 [cyclohexyl 2-(4-methyl-5-(4-nitrophenyl)-4H-1,2,4-triazol-3-ylthio)acetate]",–,PDGFRR-α and FYN and FLT-3,–

Compound,protein kinase against which the compound exhibits inhibitory activity (Table 3) [1],Kinase (test compound 10 μM),also measured
"CCSc1nnc(-c2ccc([N+](=O)[O-])cc2)n1C [3-(ethylthio)-4-methyl-5-(4-nitrophenyl)-4H-1,2,4-triazole]",PDGFRR-α and FYN,–,–
"OCC(O)CSc1nnc(-c2cccnc2)[nH]1 (centres unmarked) [3-(5-(pyridin-3-yl)-4H-1,2,4-triazol-3-ylthio)propane-1,2-diol]",AURORA-A,–,–
COc1ccc(-n2c(COc3ccccc3OC)nnc2SCCC(=O)O)cc1,CDK1,–,–
COc1ccccc1-n1c(SC(C)C(=O)Nc2cccc(NC(=O)c3ccco3)c2)nnc1-c1cccc(Cl)c1 (centres unmarked),ROCK2,–,–
COc1ccc(-n2c(SC(C)C(=O)Nc3ccc(C(C)=O)cc3)nnc2-c2ccc(O)cc2)cc1 (centres unmarked),–,GSK3-β; also recorded: GSK3-α,–
COc1ccc(-n2c(CNc3cc(C(F)(F)F)ccc3Cl)nnc2SCc2ccccc2Cl)cc1,CDK1,–,–
CCOc1ccc(NCc2nnc(SCCN3CCOCC3)n2-c2ccc(OC)cc2)cc1,FYN,–,–
COc1ccc(-n2c(S)nnc2CNc2ccc(Cl)cc2)cc1,–,AURORA-A; also recorded: GSK3-α,–
COc1ccc(-n2c(SCCC(=O)O)nnc2-c2ccc(NC(=O)c3ccccc3)cc2)cc1,CHEK2; also recorded: AURORA-A,–,–
Cc1cc(OCc2nnc(SCCN3CCOCC3)n2Cc2ccccc2)ccc1Cl,AURORA-A,–,–
CCn1c(CNc2cccc(Cl)c2)nnc1SCC(=O)NCc1ccco1,–,PAK2,–
"c1ccc2[nH]c(CSc3nnc(C4CCCC4)[nH]3)nc2c1 [2-((5-cyclopentyl-4H-1,2,4-triazol-3-ylthio)methyl)-1H-benzo[d]imidazole]",GSK3-α; also recorded: AURORA-A; also recorded: DYRK2,–,–
"Cc1cccc(OCc2nnc(S)n2C2CCCCC2)c1 [4-cyclohexyl-5-(m-tolyloxymethyl)-4H-1,2,4-triazole-3-thiol]",–,GSK3-α; also recorded: CHEK1; also recorded: AURORA-A,–
O=C(CSc1nnc(-c2ccc([N+](=O)[O-])cc2)n1CC1CCCO1)N1CCOCC1 (centres unmarked),–,PDGFRR-α,–
"Cc1cccc(-c2nnc(SCC(=O)O)[nH]2)c1 [2-(5-m-tolyl-4H-1,2,4-triazol-3-ylthio)acetic acid]",–,GSK3-β; also recorded: DYRK2; also recorded: AURORA-A,–
CCOCCSc1nnc(-c2ccc([N+](=O)[O-])cc2)[nH]1,FLT-3; also recorded: AURORA-A; also recorded: GSK3-α,–,–
CCOC(=O)c1ccc(NC(=O)CSc2nnc(-c3ccc(O)cc3)n2C)cc1,–,GSK3-β; also recorded: AURORA-A; also recorded: GSK3-α,–

# Second part, led by results:
protein kinase against which the compound exhibits inhibitory activity (Table 3) [1],Kinase (test compound 10 μM),Compound,also measured
–,DYRK2,"Cc1nnc(SCC(N)=O)n1-c1ccccc1 [2-(5-methyl-4-phenyl-4H-1,2,4-triazol-3-ylthio)acetamide]",–
–,AURORA-A,COc1ccc(-n2c(SCC(=O)O)nnc2-c2cccnc2)cc1,–
–,GSK3-β and SRC and GSK3-α,Cn1c(SCC(=O)Nc2cccc(C(F)(F)F)c2)nnc1-c1ccc(O)cc1,–
–,CDK5 and GSK3-α and CDK2-cyclinA,"Oc1ccc(-c2nnc(S)n2-c2ccccc2)cc1 [4-(5-mercapto-4-phenyl-4H-1,2,4-triazol-3-yl)phenol]",–
–,AURORA-A,"Fc1ccc(NCc2nnc(S)n2-c2ccccc2)cc1 [5-((4-fluorophenylamino)methyl)-4-phenyl-4H-1,2,4-triazole-3-thiol]",–
GSK3-α; also recorded: GSK3-β,–,"CSc1nnc(-c2ccc(O)cc2)n1Cc1ccccc1 [4-(4-benzyl-5-(methylthio)-4H-1,2,4-triazol-3-yl)phenol]",–
GSK3-β and GSK3-α and LYNA,–,"Oc1ccc(-c2nnc(SCc3ccccc3)n2Cc2ccccc2)cc1 [4-(4-benzyl-5-(benzylthio)-4H-1,2,4-triazol-3-yl)phenol]",–
–,SYK,"CCn1c(SCC(=O)c2ccccc2)nnc1-c1cccnc1 [2-(4-ethyl-5-(pyridin-3-yl)-4H-1,2,4-triazol-3-ylthio)-1-phenylethanone]",–
–,FYN,COc1ccc(NCc2nnc(SCC(=O)O)n2-c2ccc(C)cc2)cc1,–
AURORA-A,–,"Cc1ccc(CSc2nnc(Cc3ccccc3)[nH]2)cc1 [3-benzyl-5-(4-methylbenzylthio)-4H-1,2,4-triazole]",–
–,PDGFRR-α and FYN and FLT-3,CCOc1ccc(NCc2nnc(SCC(=O)Nc3ccccc3Br)n2-c2ccccc2)cc1,–
–,LCK,CCOC(=O)CN(C(=O)CSc1nnc(CNc2ccc(F)cc2)n1-c1ccccc1)c1ccccc1,–
–,C-TAK1,COc1cccc(OC(=O)CSc2nnc(CNc3c(C)cccc3C)n2-c2ccccc2)c1,–
–,PKA and MSK1 and AURORA-A,"Cn1c(SCC(=O)c2ccccc2)nnc1-c1ccncc1 [2-(4-methyl-5-(pyridin-4-yl)-4H-1,2,4-triazol-3-ylthio)-1-phenylethanone]",–
–,MAPKAPK-2 and CDK2-cyclinE and LCK,"Cc1nnc(SCC(=O)N2c3ccccc3Sc3ccccc32)[nH]1 [2-(5-methyl-4H-1,2,4-triazol-3-ylthio)-1-(10H-phenothiazin-10-yl)ethanone]",–
–,CHEK2,O=C(CSc1nnc(CNc2ccc(F)cc2)n1Cc1ccccc1)Nc1cccc(O)c1,–
INSR,–,CC(=O)c1ccc(-n2c(SCCCCc3ccccc3)nnc2-c2cccc(Cl)c2)cc1,–
–,CDK2-cyclinA; also recorded: GSK3-α,"Cc1ccc(NCc2nnc(S)n2-c2cccc(Cl)c2)cc1 [5-((p-toluidino)methyl)-4-(3-chlorophenyl)-4H-1,2,4-triazole-3-thiol]",–
–,AURORA-A,Cc1ccc(NCc2nnc(SCC#N)n2-c2ccccc2)cc1Cl,–
CHEK2,–,"Cn1c(SCc2ccc(Cl)cc2)nnc1-c1cccnc1 [3-(5-(4-chlorobenzylthio)-4-methyl-4H-1,2,4-triazol-3-yl)pyridine]",–
–,KIT,COc1ccccc1-n1c(SCC(=O)OCc2ccccc2)nnc1-c1ccccc1O,–
–,GSK3-β and MSK2 and GSK3-α,COC(=O)c1ccccc1NC(=O)CSc1nnc(-c2ccc(O)cc2)n1Cc1ccco1,–
CHEK2,–,COc1ccccc1-c1nnc(SCCC(=O)O)n1-c1cccc(Cl)c1,–
–,FYN,"COc1ccc(-c2nnc(SCC(=O)O)n2-c2ccccc2)cc1OC [2-(5-(3,4-dimethoxyphenyl)-4-phenyl-4H-1,2,4-triazol-3-ylthio)acetic acid]",–
–,AKT1,COCCn1c(SCC(=O)c2ccccc2)nnc1-c1ccc(OC)cc1,–
FYN and FLT-3,–,COc1ccc(-c2nnc(SCC(=O)NNC(=O)c3ccccc3O)n2-c2ccccc2)cc1OC,–
–,AURORA-A,O=C(CSc1nnc(-c2ccccc2O)n1CCc1ccccc1)Nc1nnc(C(F)(F)F)s1,–
